Laboratory results: patent US20250064799A1, “ORAL FORMULATIONS OF LEVOSIMENDAN FOR TREATING PULMONARY HYPERTENSION WITH HEART FAILURE WITH PRESERVED EJECTION FRACTION” (Tenax Therapeutics, Inc., priority 2021, published 2025)
Values joined by “and” are separate entries in the source; they are usually repeats but may differ in a detail not shown here. Equal entries are not always repeated. “Also recorded” adds a separate entry of the source.

Legend:
patients with PH-HFpEF [1] = assay: Adverse events, tolerability and final dose, I.V. to oral levosimendan transition study; assay type: in vivo, human; conditions: for SAEs attributed/related to study drug: 6-8 week transition
Excerpt: (§1) The following considerations justified amending the TNX-LVO-05 study protocol: • 1. The amended TNX-LVO-05 protocol included the same patients enrolled in the original study. This was not a new study of the patients currently enrolled. This was open label, with no blinding of patients or physicians, and no control group. • 2. The scope and purpose of the study was unchanged, with the exception that it offered the further extension of treatment allowed by the transition to oral therapy (See item #4). • 3. The amendment clearly delineated a stepwise and thoughtful titration of patients from their intravenous to oral levosimendan to ensure the safe and effective transition of their levosimendan regimen. • a. Patients were started on 1 mg daily, representing a dose generally less than half their total weekly weight-based dose regimen. • b. Patients were titrated based on tolerance to the daily levosimendan paying attention to their symptoms of PH-HFpEF, and special attention to specific adverse events of interest, heart rate and blood pressure. A daily diary captured patient vitals and symptoms to aid their physician in titrating patients at two-week intervals. • c. Patient response also was evaluated by clinical measures to provide the physician with additional information on the patient's response. • d. While most patients were expected to receive 2-3 mg daily at the conclusion of the transition study, the dose escalation strategy was included to allow all patients to realize the same benefit as they did from the I.V. formulation. • e. To document the sustained efficacy of the oral formulation in these patients, patients had to undergo a six-minute walk test and patient questionnaire prior to and at the end of the transition study. • 4. The transition to oral levosimendan allowed for extension of the study from its initial two years to an additional three years. This offers these PH-HFpEF patients, with no other treatments available, to continue on a drug that they have responded to. • 5. The amendment required patients to sign a revised informed consent to ensure patients are completely informed concerning the transition amendment. Patients that preferred to continue with their weekly 24-hour I.V. regimen were allowed to continue through the initial two-year period of the study and then will be withdrawn.
Methods: Patients with PH-HFpEF who were in the open label extension study of the HELP Trial for more than 18 months volunteered to enroll in this transition protocol. Patients were initiated with 1 mg/day of oral levosimendan 5-7 days after the last IV levosimendan infusion. The oral dose was increased every 2 weeks by 1 mg/day to a maximum of 4 mg/day over an 8 week period. The highest daily dose was determined by the investigator based on clinical assessments of symptoms and side effects. The primary safety endpoints were change in resting heart rate and blood pressure from baseline to final study visit and all other adverse events. Secondary efficacy endpoints included change in six-minute walk distance (6MWD), serum brain natriuretic peptide (BNP) or NT-proBNP levels, and quality of life as assessed by Kansas City Cardiomyopathy Questionnaire clinical summary score (KCCQ-CS) and overall summary score (KCCQ-OS) from baseline to final study visit. All comparisons were the baseline and at week 6-8 measurements at the highest daily dose of levosimendan. […]

patients with PH-HFpEF [2] = assay: Kansas City Cardiomyopathy Questionnaire (KCCQ), I.V. to oral levosimendan transition study; assay type: in vivo, human
Description: Methods: Patients with PH-HFpEF who were in the open label extension study of the HELP Trial for more than 18 months volunteered to enroll in this transition protocol. Patients were initiated with 1 mg/day of oral levosimendan 5-7 days after the last IV levosimendan infusion. The oral dose was increased every 2 weeks by 1 mg/day to a maximum of 4 mg/day over an 8 week period. The highest daily dose was determined by the investigator based on clinical assessments of symptoms and side effects. The primary safety endpoints were change in resting heart rate and blood pressure from baseline to final study visit and all other adverse events. Secondary efficacy endpoints included change in six-minute walk distance (6MWD), serum brain natriuretic peptide (BNP) or NT-proBNP levels, and quality of life as assessed by Kansas City Cardiomyopathy Questionnaire clinical summary score (KCCQ-CS) and overall summary score (KCCQ-OS) from baseline to final study visit. All comparisons were the baseline and at week 6-8 measurements at the highest daily dose of levosimendan.
• Change in six-minute walk distance (6MWD) from baseline to final study visit • Change in serum brain natriuretic peptide (BNP) or NT-proBNP levels from baseline to final study visit • Change in quality of life as assessed by Kansas City Cardiomyopathy Questionnaire clinical summary score (KCCQ-CS) and overall summary score (KCCQ-OS) from baseline to final study visit
All comparisons were the baseline and at week 6-8 measurements at the highest daily dose of levosimendan.

[3] = in vivo; cited from earlier work
patients with PH-HFpEF [4] = assay: Six-minute walk test (6MWT/6MWD), I.V. to oral levosimendan transition study (TNX-LVO-05 open label extension of HELP); assay type: in vivo, human
Excerpt: (§2) The initial HELP Study is described in PCT International Application Publication No. WO 2021/126884 and Burkhoff, et al. (2021) “Levosimendan improves hemodynamics and exercise tolerance in PH-HFpEF: results of the randomized placebo-controlled HELP trial,” the entire contents of each of which are incorporated by reference. […] Among the goals of the extension study was to determine the dose of oral levosimendan that could maintain the efficacy of the weekly I.V. infusions of levosimendan.
Once that dose is determined, the study is identical with respect to the protocol. Since the I.V. formulation is weight based, and bypasses issues of bioavailability that may be affected by drug absorption, a dose escalation strategy is being adopted, guided by the individual patient response and any adverse events that may occur. Thus, the measurement of a six-minute walk test and patient questionnaire before and after the transition was to ensure that the patient continues to benefit. In addition, the monitoring of the patients' blood pressure and heart rate each day was to ensure that the oral dose remains safe.
as §1
Methods: Patients with PH-HFpEF who were in the open label extension study of the HELP Trial for more than 18 months volunteered to enroll in this transition protocol. Patients were initiated with 1 mg/day of oral levosimendan 5-7 days after the last IV levosimendan infusion. The oral dose was increased every 2 weeks by 1 mg/day to a maximum of 4 mg/day over an 8 week period. The highest daily dose was determined by the investigator based on clinical assessments of symptoms and side effects. […]

patients with PH-HFpEF [5] = assay: HELP Study (TNX-LVO-04), weekly I.V. levosimendan for 6 weeks; assay type: in vivo, human; design: HELP (WK 6) 6MWT: unit not given here
Excerpt: as §2
PH-HFpEF is a progressive, fatal disease for which there are no approved therapies. All patients that the 6-week parent TNX-LVO-04 study (also referred to as the initial Help Study) underwent assessments of safety and efficacy in a double-blind randomized protocol. […] For these reasons, all participating patients were allowed to enter an open-label extension study (also referred to as TNX-LVO-05), to provide ongoing levosimendan therapy for two additional years. […]

[6] = baseline to final visit, oral levosimendan
[7] = individual patients transitioned from weekly I.V. to oral levosimendan
[8] = individual patients, Active arm of HELP Study, weekly I.V. levosimendan, week 6

C[C@@H]1CC(=O)NN=C1c1ccc(NN=C(C#N)C#N)cc1 [levosimendan]
tolerability of transition to oral levosimendan (patients with PH-HFpEF [1]; 6-8-week period, after >18 months of IV levosimendan): well tolerated without safety concerns
other adverse events (patients with PH-HFpEF [1]; 18 patients, oral levosimendan): No other adverse events
serious adverse event not related to study drug (patients with PH-HFpEF [1]; 18 patients, oral levosimendan, listed as study drug): One patient experienced a serious adverse event (SAE) unrelated to study drug; also recorded: One patient had a serious adverse event not related to the study drug
SAEs attributed/related to study drug (patients with PH-HFpEF [1]; oral levosimendan): no SAEs related
SAEs attributed/related to study drug (patients with PH-HFpEF [1]; oral levosimendan, listed as study drug): no SAEs were reported
KCCQ OVERALL SUMMARY, mean Δ (patients with PH-HFpEF [2]; [6]): +3.7
KCCQ PHYSICAL LIMITATION, mean Δ (patients with PH-HFpEF [2]; [6]): +0.3
KCCQ QUALITY OF LIFE, mean Δ (patients with PH-HFpEF [2]; [6]): +4.2
KCCQ SELF EFFICACY, mean Δ (patients with PH-HFpEF [2]; [6]): −2.3
KCCQ SOCIAL LIMITATION, mean Δ (patients with PH-HFpEF [2]; [6]): +5.5
KCCQ Symptom Burden, mean Δ (patients with PH-HFpEF [2]; [6]): +6.3
KCCQ Symptom Frequency, mean Δ (patients with PH-HFpEF [2]; [6]): +3.1
KCCQ Symptom Stability, mean Δ (patients with PH-HFpEF [2]; [6]): +9.4
KCCQ TOTAL SYMPTOM, mean Δ (patients with PH-HFpEF [2]; [6]): +4.7
mean KCCQ-CS score improvement (patients with PH-HFpEF [2]; n=16, oral levosimendan): 2.5 points
mean KCCQ-OS score improvement (patients with PH-HFpEF [2]; n=16, oral levosimendan): 3.7 points
mean KCCQ-TS score improvement (patients with PH-HFpEF [2]; n=16, oral levosimendan): 4.7 points
parent half-life [3]: approximately 1 hour
6MW Change (BL vs Week 6 only) (patients with PH-HFpEF [4]; [7]): −137 and 78 and −27 and 118 and −10 and −4 and 5 and −9 and −8 and 9 and −17 and 40 and 30 (2×) and 15 and −1
6MW Change (Baseline vs Week 6/8) (patients with PH-HFpEF [4]; [7]): −15 and 78 and −27 and −10 and −31 and −4 and 24 and −23 and −112 and 9 and −17 and 30 (3×) and −1
6MWD Change from baseline to Week 6 - Oral, Maximum (patients with PH-HFpEF [4]; n=16): 118
6MWD Change from baseline to Week 6 - Oral, Median (patients with PH-HFpEF [4]; n=16): 2.0
6MWD Change from baseline to Week 6 - Oral, Minimum (patients with PH-HFpEF [4]; n=16): −137
6MWD Week 6 - Oral, Maximum (patients with PH-HFpEF [4]; n=16, oral levosimendan): 550 m
6MWD Week 6 - Oral, Mean (patients with PH-HFpEF [4]; n=16, oral levosimendan): 302.0
6MWD Week 6 - Oral, Median (patients with PH-HFpEF [4]; n=16, oral levosimendan): 292.0
6MWD Week 6 - Oral, Minimum (patients with PH-HFpEF [4]; n=16, oral levosimendan): 91
mean change in 6MWD (patients with PH-HFpEF [4]; n=17, baseline to final study visit, oral levosimendan): 13.1 (SD±39.5) meters
improvement in six minute walk distance (patients with PH-HFpEF [4]; oral levosimendan compared to weekly I.V. infusion): 32%
HELP (WK 6) 6MWT (patients with PH-HFpEF [5]; [8]): 311 and 397 and 270 and 218 and 232 and 401 and 196 and 482
HELP (WK 6) HR (patients with PH-HFpEF [5]; [8]): 72 and 63 (2×) and 86 and 71 and 67 and 75 (2×)
average improvement of 6-minute walk distance (patients with PH-HFpEF [5]; levosimendan alone, PH-HFpEF patients): approximately 29 m
effect on pulmonary vascular resistance (patients with PH-HFpEF [5]; particularly upon chronic administration): did not decrease
